Columns and labels:
Assay type in all cases: in vivo
Alopecurus myosuroides = assay: Herbicidal post-emergence action; conditions: post-emergence method; for herbicidal effect against ALOMY (Alopecurus myosuroides): 80 g/ha; for pest or weed control at 80 g/ha: Alopecurus myosuroides, 504 h, read-out: herbicidal effect against ALOMY (Alopecurus myosuroides)
Procedure: (§1) Seeds of monocotylidonous and dicotylidonous weed and crop plants are placed in sandy loam in wood fibre pots, covered with soil and cultivated in a greenhouse under good growth conditions. Two to three weeks after sowing, the test plants are treated at the one-leaf stage. The test compounds, formulated as wettable powders (WP), are then with a water application rate of 600 l/ha (converted), with 0.2% of wetting agent added, sprayed onto the green parts of the plants in different amounts. After the test plants have been kept in the greenhouse under optimum growth conditions for about three weeks, the effect of the preparations is assessed visually in comparison to untreated controls (herbicidal effect in percent: 100% effect=the plants have died, 0% effect=like control plants).

Echinocloa crus-galli = assay: Herbicidal post-emergence action; conditions: post-emergence method; for herbicidal effect against ECHCG (Echinochloa crus-galli): 80 g/ha; for pest or weed control at 80 g/ha: Echinochloa crus-galli, 504 h, read-out: herbicidal effect against ECHCG (Echinochloa crus-galli)
Procedure: as §1

Lolium multiflorum = assay: Herbicidal post-emergence action; conditions: post-emergence method; for herbicidal effect against LOLMU (Lolium multiflorum): 80 g/ha; for pest or weed control at 80 g/ha: Lolium multiflorum, 504 h, read-out: herbicidal effect against LOLMU (Lolium multiflorum)
Procedure: as §1

Setaria viridis = assay: Herbicidal post-emergence action; conditions: post-emergence method; for herbicidal effect against SETVI (Setaria viridis): 80 g/ha; for pest or weed control at 80 g/ha: Setaria viridis, 504 h, read-out: herbicidal effect against SETVI (Setaria viridis)
Procedure: as §1

[1] = system: monocotylidonous and dicotylidonous weed and crop plants; assay: Herbicidal post-emergence action (other test plants); conditions: post-emergence method; for herbicidal effect against AVEFA (Avena fatua): 80 g/ha; for pest or weed control at 80 g/ha: 504 h, Avena fatua, read-out: herbicidal effect against AVEFA (Avena fatua)
Procedure: as §1

| SMILES | herbicidal effect against ALOMY (Alopecurus myosuroides) (Alopecurus myosuroides) | herbicidal effect against ECHCG (Echinochloa crus-galli) (Echinocloa crus-galli) | herbicidal effect against LOLMU (Lolium multiflorum) (Lolium multiflorum) | herbicidal effect against SETVI (Setaria viridis) (Setaria viridis) | herbicidal effect against AVEFA (Avena fatua) [1] | pest or weed control at 80 g/ha (Alopecurus myosuroides) | pest or weed control at 80 g/ha (Echinocloa crus-galli) | pest or weed control at 80 g/ha (Lolium multiflorum) | pest or weed control at 80 g/ha (Setaria viridis) | pest or weed control at 80 g/ha [1] |
| --- | --- | --- | --- | --- | --- | --- | --- | --- | --- | --- |
| CCc1cc(C)cc(CC)c1C1=C(O)C2CC3(CC2C1=O)OCCCS3 (mixture of isomers) [I-a-20] | 90% | 100% | 100% | 90% | 80% | – | – | – | – | – |
| Cc1cc(C)c(C2=C(OC(=O)CC(C)C)C3CC4(COC(C)(C)O4)CC3C2=O)c(C)c1 (mixture of isomers) [I-b-44] | 80% | 80% | 100% | 60% | 80% | – | – | – | – | – |
| COCC(=O)OC1=C(c2c(C)cc(C)cc2C)C(=O)C2CC3(COC(C)(C)O3)CC12 (mixture of isomers) [I-b-47] | 90% | 100% | 90% | 0% | 80% | – | – | – | – | – |
| CCC(=O)OC1=C(c2c(C)cc(C)cc2C)C(=O)C2CC3(COC(C)(C)O3)CC12 (mixture of isomers) [I-b-50] | 100% | 90% | 100% | 80% | 0% | – | – | – | – | – |
| CCOC(=O)OC1=C(c2c(C)cc(C)cc2C)C(=O)C2CC3(CC12)OCC(C)CO3 (mixture of isomers) [I-c-48] | 20% | 90% | 100% | 80% | 20% | – | – | – | – | – |
| Cc1cc(C)c(C2=C(OC(=O)OC(C)C)C3CC4(COC(C)(C)O4)CC3C2=O)c(C)c1 (mixture of isomers) [I-c-55] | 80% | 100% | 100% | 30% | 20% | – | – | – | – | – |
| CCOC(=O)OC1=C(c2c(C)cc(C)cc2C)C(=O)C2CC3(CC12)OCCCO3 (racemic) [I-c-47] | 100% | 100% | 100% | 60% | 90% | – | – | – | – | – |
| COC(=O)OC1=C(c2c(C)cc(C)cc2C)C(=O)C2CC3(CC12)OCCCCO3 (racemic) [I-c-49] | 100% | 90% | 100% | 80% | 80% | – | – | – | – | – |
| COC(=O)OC1=C(c2c(C)cc(C)cc2C)C(=O)C2CC(=O)CC12 (racemic) [I-c-57] | 90% | 100% | 0% | 90% | 0% | – | – | – | – | – |
| CCOC(=O)OC1=C(c2c(C)cc(C)cc2C)C(=O)C2CC(=O)CC12 (racemic) [I-c-58] | 0% | 100% | 0% | 100% | 0% | – | – | – | – | – |
| C#CCON=C1CC2C(=O)C(c3c(C)cc(C)cc3C)=C(OC(=O)OC)C2C1 (racemic) [I-c-59] | 0% | 100% | 60% | 20% | 0% | – | – | – | – | – |
| C#CCON=C1CC2C(=O)C(c3c(C)cc(C)cc3C)=C(OC(=O)OCC)C2C1 (racemic) [I-c-60] | 20% | 100% | 80% | 0% | 0% | – | – | – | – | – |
| CCc1cc(C)cc(CC)c1C1=C(O)[C@H]2CC3(C[C@H]2C1=O)SCCS3 (relative stereo) [I-a-16] | 30% | 90% | 80% | 80% | 30% | – | – | – | – | – |
| CCc1cc(C)cc(CC)c1C1=C(O)[C@H]2CC3(C[C@H]2C1=O)SCCCS3 (relative stereo) [I-a-17] | 30% | 90% | 90% | 80% | 40% | – | – | – | – | – |
| C#CCON=C1C[C@@H]2C(O)=C(c3c(CC)cc(C)cc3CC)C(=O)[C@@H]2C1 (relative stereo) [I-a-33] | 100% | 100% | 100% | 90% | 0% | – | – | – | – | – |
| Cc1cc(C)c(C2=C(O)[C@H]3CC4(C[C@H]3C2=O)OCCCO4)c(C)c1 (relative stereo) [I-a-37] | 60% | 100% | 100% | 60% | 90% | – | – | – | – | – |
| CCOC(=O)OC1=C(c2c(CC)cc(C)cc2CC)C(=O)[C@@H]2CC3(C[C@H]12)SCCS3 (relative stereo) [I-c-15] | 90% | 90% | 90% | 90% | 60% | – | – | – | – | – |
| CCc1cc(C)cc(CC)c1C1=C(O)[C@H]2CC(=O)C[C@H]2C1=O (stereo in doubt) [I-a-4, 2-(2,6-diethyl-4-methylphenyl)-3-hydroxy-3a,4,6,6a-tetrahydropentalene-1,5-dione] | – | – | – | – | – | 60% | 100% | 20% | 100% | 30% |
| CCc1cc(C)cc(CC)c1C1C(=O)[C@H]2C/C(=N\OC)C[C@H]2C1=O (stereo partly drawn) [I-a-18] | – | – | – | – | – | 90% | 100% | 100% | 90% | 60% |
| C#CCON=C1CC2C(=O)C(c3c(C)cc(C)cc3C)=C(O)C2C1 (stereo not drawn) [I-a-43] | 20% | 90% | 40% | 40% | 0% | – | – | – | – | – |
| CON=C1CC2C(=O)C(c3c(C)cc(C)cc3C)=C(O)C2C1 (stereo not drawn) [I-a-44] | 20% | 100% | 20% | 80% | 0% | – | – | – | – | – |
| COc1cc(C)cc(C)c1C1=C(O)C2CC(=O)CC2C1=O (stereo not drawn) [I-a-46] | 0% | 100% | 0% | 40% | 0% | – | – | – | – | – |
| COc1cc(C)cc(C)c1C1=C(O)C2CC3(CC2C1=O)OCCCO3 (stereo not drawn) [I-a-47] | 20% | 100% | 100% | 100% | 80% | – | – | – | – | – |
| CCc1cc(C)cc(C)c1C1=C(O)C2CC(=O)CC2C1=O (stereo not drawn) [I-a-56] | 0% | 100% | 0% | 100% | 0% | – | – | – | – | – |
| CCc1cc(C)cc(C)c1C1=C(O)C2CC3(CC2C1=O)OCC=CCO3 (stereo not drawn) [I-a-60] | 100% | 100% | 100% | 100% | 90% | – | – | – | – | – |
| CCC(=O)OC1=C(c2c(CC)cc(C)cc2CC)C(=O)C2CC3(CC12)SCCCS3 (stereo not drawn) [I-b-9] | 90% | 90% | 40% | 40% | 0% | – | – | – | – | – |
| CCc1cc(C)cc(CC)c1C1=C(OC(=O)COC)C2CC3(CC2C1=O)SCCCS3 (stereo not drawn) [I-b-10] | 90% | 90% | 70% | 70% | 20% | – | – | – | – | – |
